{"source": "patent US8846645B2", "about": "“Cyclohexane compounds and their use as antibiotics” (Rheinische Friedrich-Wilhelms Universität Bonn, priority 2010, dated 2014)", "key": {"[1]": {"tested_on": "Staphylococcus aureus Mu50 cells", "experiment": "synergistic effects with vancomycin treatment of S. aureus Mu50", "assay_type": "cell-based", "conditions": "0.0025 mM alone", "method": "Before treatment, Staphylococcus aureus Mu50 cells (RKI Berlin) were grown in sterile, 15 ml flasks containing 5 ml of 2×CDM without glucose at 37° C. for 24 h under vigorous shaking.\nFor the determination of the growth inhibition 100 μl of 2×CDM containing 10 μM vancomycin were put into each of 12 wells. […] Finally, Mu50 cells that had been grown to an optical density (OD600) of 0.8 to 1 were diluted in 2×CDM to an optical density (OD600) of 0.2. From this dilution 100 μl were added to the already prepared plate leading to a final compound concentration of 80 mM, 40 mM, 20 mM, 10 mM, 5 mM, and 2.5 mM, a final concentration of 2.5 μM vancomycin and a final OD600 of 0.1 per well at the beginning of the measurement. The 96 well plate was incubated at 37° C. in a Tecan Sunrise plate reader, which tracks the optical density (OD600) in 10 minute intervals and automatically shakes the plate for one minute every two minutes. Minimal inhibitory concentration was read after 18 h to 24 h of incubation. Control cells were treated without compounds or with 2.5 μM vancomycin."}, "[2]": {"tested_on": "glmS riboswitch of Staphylococcus aureus MU50", "experiment": "metabolite-induced self-cleavage assay of the glmS riboswitch", "assay_type": "biochemical", "procedure": "The determination was performed using an in vitro preparation of the glmS riboswitch of Staphylococcus aureus MU50.\nThe glmS riboswitch DNA was amplified from genomic DNA of the S. aureus Mu50 strain (RKI Berlin) by standard Pfu polymerase chain reaction (PCR) using a 5′ primer containing the T7 promoter (GATAATACGACTCACTATAGGGCAGTTAAAGCGCCTGTGCAAATA, SEQ ID NO: 1) and a 3′ primer (ATCTTATTAACTTTGTCCATTAAGTCACCC, SEQ ID NO: 2) (20 cycles, annealing temperature of 60° C., homemade Pfu enzyme). The resultant of a 100 μl PCR reaction was phenol/chloroform extracted and precipitated using 3M NaOAc pH 5.4 and ethanol Pellets were resuspended in 10 μl diethylpyrocarbonate treated water (DEPC H2O) and used as template for T7 RNA polymerase-based transcription. […]\nFor this assay the following components were mixed to yield the stated final concentrations: cleavage buffer (50 mM Hepes pH 7.5, 200 mM KCl), MgCl2 (10 mM), glucosamine-6-phosphate (200 μM), glucosamine (GlcN) (200 μM), the compound according to formula (I) (200 μM) or the compound according to formula (3) (200 μM and 20 mM), radioactively labelled RNA (20 cps) and DEPC H2O ad 10 μl. […] The screens were read using a FujiFilm PhosphorImager FLA 3000 and evaluated using AIDA software."}, "[3]": {"tested_on": "Staphylococcus aureus SG511", "experiment": "determination of the minimal inhibitory concentration in Staphylococcus aureus SG511", "assay_type": "cell-based", "conditions": "0.5× Mueller-Hinton media, 18-24 h, OD 600 nm; FIG. 3", "procedure": "The determination of the minimal inhibitory concentration (MIC) of the compounds according to formula (I) (carba-GlcN6P) and formula (3) (carba-GlcN) was performed in clear, round bottom 96-well plates. For this 100 μl of 0.5× Mueller-Hinton media (Oxoid, 300 gm/litre dehydrated infusion from beef, 17.5 gm/litre casein hydrolysate, 1.5 gm/litre starch, pH 7.3) were put into the 12 wells. To the first well 100 μl of 320 mM solution of carba-GlcN were added, mixed by pipetting and 100 μl of this mixture were transferred into the next well etc., generating a sequence final dilutions from 160 mM to 0.08 mM. Finally, SG511 cells that had been grown to an optical density (OD600) of 1 were diluted in 0.5× Mueller-Hinton media 1:10 000. From this dilution 100 μl were added to the already prepared plate leading to a final compound concentration of 80 mM-0.04 mM. After incubation for 10 min at RT and vivid shaking, the 96-well plate was transferred to a 37° C. incubator. After 18-24 h of incubation the plate was read at 600 nm using a standard plate reader."}, "[4]": {"tested_on": "Staphylococcus aureus Mu50 cells", "experiment": "growth inhibition in vancomycin intermediate resistant Staphylococcus aureus Mu50 in sugar free medium", "assay_type": "cell-based", "procedure": "For the preparation of 2× chemically defined medium (2×CDM), a minimal medium for Staphylococcus aureus without glucose, for the preparation of 500 ml the following components were mixed in individual groups before being combined:\nAfter preparation of the individual groups, the groups I-IV were added to group V. The volume was adjusted to 480 ml with ddH2O. The pH was adjusted to 7 using HCl followed by adjusting the volume to the final 500 ml. Before storage at 4° C. the medium was sterile filtered.\nThe determination of the decrease in bacterial growth of Staphylococcus aureus Mu50 cells (RKI Berlin) depending on the concentration of the compound according to formula (3) (C GlcN) was performed in clear, sterile, round bottom 96-well plates with lid. Before treatment, the cells were grown in 2×CDM medium without glucose at 37° C. for 24 h under vigorous shaking.\nFor the determination of the growth inhibition 100 μl of 2×CDM were put into each of 12 wells. […] The 96 well plate was incubated at 37° C. in a Tecan Sunrise plate reader, which tracks the optical density (OD600) in 10 minute intervals and automatically shakes the plate for one minute every two minutes. Minimal inhibitory concentration was read after 18 h to 24 h of incubation. […]"}}, "data": [{"smiles": "CN[C@H](CC(C)C)C(=O)N[C@H]1C(=O)N[C@@H](CC(N)=O)C(=O)N[C@H]2C(=O)N[C@H]3C(=O)N[C@H](C(=O)N[C@H](C(=O)O)c4cc(O)cc(O)c4-c4cc3ccc4O)[C@H](O)c3ccc(c(Cl)c3)Oc3cc2cc(c3O[C@@H]2O[C@H](CO)[C@@H](O)[C@H](O)[C@H]2O[C@H]2C[C@](C)(N)[C@H](O)[C@H](C)O2)Oc2ccc(cc2Cl)[C@H]1O", "note": "[vancomycin]", "values": [{"measurement": "bacterial growth (OD600) compared to untreated cells", "setting": "[1]; after 10 h, FIG. 5", "result": "no change in the bacterial growth"}, {"measurement": "bacterial growth (OD600) compared to untreated cells", "setting": "[1]; over 18 h of incubation, FIG. 6", "result": "no change in the bacterial growth"}]}, {"smiles": "N[C@@H]1[C@@H](O)[C@H](O)[C@@H](COP(=O)(O)O)C[C@@H]1O", "note": "[formula (1), (1S,2S,3R,4R,5R)-2-amino-5-((phosphonooxy)methyl)-cyclohexane-1,3,4-triol]", "values": [{"measurement": "activation of the glmS-riboswitch compared with the native metabolite", "setting": "[2]; versus GlcN6P", "result": "almost the same potency"}, {"measurement": "bacterial growth of Staphylococcus aureus", "setting": "[3]", "result": "effectively inhibit the growth"}]}, {"smiles": "NC1C(O)CC(CO)C(O)C1O", "note": "(stereo not shown) [formula (3), Carba-glucosamine]", "values": [{"measurement": "MIC", "setting": "[4]; Staphylococcus aureus, MU50CELLS, 2×CDM without glucose, read after 18 h to 24 h, n=3, read-out: minimal inhibitory concentration (MIC)", "result": 625, "unit": "µM"}, {"measurement": "concentration at which measureable growth inhibition started", "setting": "[4]; sugar free medium, referring to control cells grown without compounds, FIG. 4", "result": 0.156, "unit": "mM"}]}, {"smiles": "N[C@H]1C(O)O[C@H](COP(=O)(O)O)[C@@H](O)[C@@H]1O", "note": "(stereo partly shown) [GlcN6P, glucosamine-6-phosphate, reference compound]", "values": [{"measurement": "EC50", "setting": "[2]; concentration dependent analysis, 37° C., 30 min", "result": "3.61 ± 0.39", "unit": "µM"}]}]}
